The values that follow come from patent publication US11395798B2, “O/W type emulsion” (NOF CORPORATION, priority 2015, dated 2022).

Data set [1] can be described thus: retentivity in blood test, 4 MU-Pal versus 4 MU-CHEMS. Format: in vivo. The settings on record: B-2:DOPC:Chol emulsion, tail vein, ICR mouse; comparison with 4 MU-Pal. The protocol: To a lipid mixture of B-2:DOPC:Chol=3:4:3 were added DSG-PEG2000 (9 mol %) and 30 mol % 4 MU-Pal, and 1 mol % fluorescent dye DiD was added to give an emulsion by a method similar to that in Example 1.
To a lipid mixture of B-2:DOPC:Chol:4 MU-CHEMS=3:4:1.5:1.5 was added DSG-PEG2000 (15 mol %), fluorescent dye DiD (1 mol %) was further added, and an emulsion was prepared by a method similar to that in Example 1.
The concentration of the particle suspension was set to 4 mM as a lipid concentration (B-2+DOPC+Chol). The suspension (250 μL) was administered to ICR mouse J 4-week-old from the tail vein. Blood (25 μL) was collected at each time point and mixed with pH 10.4 borate buffer (275 μL), ethanol (150 μL), 10% SDS (50 μL). 4 MU-Pal or 4 MU-CHEMS was hydrolyzed by incubation at 60° C. for 30 min. The fluorescence of the resulting 4-methylumbelliferone, and DiD modified by particles was each measured by a plate reader and the residual amount in the blood was examined from the analytical curve.

Data set [2] is described as follows: organ accumulation of particles in 4T1 tumor-bearing mouse (IVIS). Format: in vivo, BALB/c mouse. The note with it: intravenous, lipid 800 nmol, 24 hr after administration, DiR fluorescence. How it is done:
As cationic lipid, B-2 and B-2-5 were used. As conventional lipid, DODAP and EPC were used. The preparation methods of the O/W type emulsion and particle suspensions (DODAP, EPC) followed the methods described in Example 1 and Comparative Example 1. To visualize pharmacokinetics of the oil droplets constituting the O/W type emulsion or particle suspension (DODAP, EPC), fluorescent dye DiR was added by 0.2 mol % of the lipid. The particle concentration was adjusted to 4 mM as a lipid concentration.
As a tumor-bearing mouse, 4T1 cell (mouse breast cancer) was used. 1×10^6 4T1 cells were subcutaneously transplanted to the right flank of BALB/c mouse (♀, 4-week-old). At 7 days from the transplantation, 200 μL (lipid 800 nmol) of the O/W type emulsion or particle suspension (DODAP, EPC) containing fluorescence-modified particles was intravenously administered. At 24 hr after administration, […] was performed, and the spleen, liver and tumor were collected and image was obtained by IVIS. The average fluorescence intensity was calculated using Living Image Software.
As a cationic lipid, B-2 was used. An O/W type emulsion was prepared according to Example 3. In this preparation, 4-Methylumbelliferon (10 mol %) was used as a model drug and DMG-PEG2000 (10 mol %) and DSG-PEG2000 (2.5 mol %) were used as PEG lipids, and a 4.0 mM (based on lipid concentration) emulsion was prepared. To visualize pharmacokinetics of the oil droplets constituting the O/W type emulsion or particle suspension (DODAP, EPC), fluorescent dye DiR was added by 0.2 mol % of the lipid. As the salt (NaCl) concentration during preparation of particles, 30 mM, 150 mM, 750 mM were selected and taken as “Small”, “Medium”, “Large”, respectively. The particle concentration was adjusted to 4 mM as a lipid concentration.
The organ distribution in a tumor-bearing mouse was evaluated in the same manner as in Experimental Example 1. As a result, accumulation in the spleen, liver decreased as the particle size became smaller.

Data set [3] is described as follows: drug release and reduction responsibility test (dialysis, with or without 10 mM glutathione). Format: physicochemical. The protocol: Using B-2, B-2-5, O-C3M, B-2-3, TS-P4C2 or L-PZ4C2 as a cationic lipid, an O/W type emulsion having a composition of cationic lipid:DOPC:Cholesterol=3:4:3 (molar ratio) was prepared. In this preparation, DSG-PEG2000 (9 mol %) was used as a PEG lipid. As a drug model molecule, 4-Methylumbelliferon Palmitate (30 mol %) was used and fluorescent probe DiD (1 mol %) was used for calibration by particles concentration.
An ethanol solution containing 1000 nmol as a total of cationic lipid, DOPE, and Cholesterol was prepared, and PEG lipid, drug model molecule and fluorescent probe were added in the above-mentioned amounts. Ethanol was added to make the total amount 400 μL, and the mixture was stood at 37° C. for 15 min. A similarly heated malic acid buffer (20 mM, pH 3.0, 30 mM NaCl) (400 μL) was mixed within 3 sec under vortex. PBS (NISSUI) (3200 μL) was immediately added thereto. The mixture was subjected to ultrafiltration using Amicon Ultra (Millipore) The centrifugation conditions were 1000 g, 25° C. […]
400 μL of the prepared emulsion was placed in a dialysis membrane (Spectrum Lab) having a molecular weight cutoff of 1000 and dialyzed against 40 mL of PBS at 37° C. […] After penetration and stirring at 60° C. for 30 min, the amounts of 4MU and DiD in the solution were quantified by fluorescence measurement (4MU: Ex385, Em450 DiD: Ex645, Em665). […]

Data set [4] is described as follows: particle size distribution by dynamic light scattering (Zetasizer Nano ZS). The class given is physicochemical. How it is done: The particle size distribution of the prepared emulsion was measured by dynamic light scattering using Zetasizer Nano ZS. The measurement conditions were 1 mM emulsion (40 μL) at 25° C. As a result, in all compositions, the volume median diameter was not more than 100 nm and, when a linear head was used (i.e., the formula (I) wherein X^a and X^b are each X^1), the particle size was not more than 50 nm. The drug recovery rate was not less than 85% (FIG. 1, Table 2).
EPC and Cholesterol were mixed to achieve 1000 nmol and a PEG lipid was added. Chloroform in an amount equal to that of the lipid ethanol solution was added and the mixture was dried under a nitrogen blow. PBS (1 mL) was added to the lipid membrane after drying and the mixture was stood for 10 min and sonicated by a bath-type sonicator for 3 min to give a particle suspension. The particle size distribution of the prepared particles was measured by dynamic light scattering in the same manner as in Example 1.
The particle size distribution of the produced emulsion solution was measured by dynamic light scattering similarly to Example 1. As a result, when DOPC was used, the volume median diameter was near 40 nm irrespective of pH.
An ethanol solution containing 500 nmol as a total of cationic B-2, DOPE, and Cholesterol was prepared, and a PEG lipid was added in the above-mentioned amount. Ethanol was added to make the total amount 200 μL, and the mixture was stood at ice temperature for 15 min. A similarly ice-cooled malic acid buffer (20 mM, pH 3.0, 0-1000 mM NaCl) (200 μL) was mixed within 3 sec under vortex. PBS (NISSUI) (3600 μL) was immediately added thereto. The mixture was subjected to ultrafiltration using Amicon Ultra (Millipore). The centrifugation conditions were 1000 G, 25° C. An operation including addition of 3200 μL of PBS after centrifugation for 10 min was repeated twice and the sample was concentrated to about 500 μL. The concentrate was diluted with PBS to a mass of 1000 mg to give a 0.5 mM (lipid concentration) emulsion. The particle size distribution of the produced emulsion solution was measured by dynamic light scattering similarly to Example 1.
The volume median diameter and the surface potential were measured using the dynamic light scattering (Zetasizer Nano; Malvern) in the same manner as in Example 1.
The average particle size of the produced particles was measured in the same manner as in Example 1 and the results are shown in Table 7.

Data set [5] can be described thus: DexPal-carrying rate by high performance liquid chromatography. The settings on record: DexPal-carrying LNP. The class given is physicochemical. How it is done:
1 mM DexPal-carrying LNP (50 μL) was mixed with phosphate buffer (pH 7.4) (50 μL), and 50 μL thereof was mixed with MeOH (50 μL). 0.1% Trifluoroacetic acid/acetonitrile (400 μL) was added, and DexPal was detected by high performance liquid chromatography (column: InertSustain C18, 5 μm, 4.6 mm×250 mm (GL Sciences Inc.), mobile phase: MeOH:0.1% trifluoroacetic acid/acetonitrile=70:30, flow rate: 1 mL/min, detector: 240 nm, injection volume: 200 μL). As the analytical curve of Dex-Pal, 0.5 mM, 0.25 mM, 0.125 mM, 0.0625 mM, DexPalethanol solution (50 μL) was mixed with MeOH (50 μL), and 50 μL thereof was mixed with phosphate buffer (pH 7.4) (50 μL). 0.1% Trifluoroacetic acid/acetonitrile (400 μL) was added, and DexPal was detected by a method similar to that for DexPal-carrying LNP. The peak area and concentration were plotted, and the DexPal concentration and carrying rate in the DexPal-carrying LNP were calculated.

For `Cc1cc(=O)oc2cc(OC(=O)CCC(=O)OC3CCC4(C)C(=CCC5C4CCC4(C)C(C(C)CCCC(C)C)CCC54)C3)ccc12` (stereo not drawn) [4 MU-CHEMS, 4-methylumbelliferone cholesterol hemisuccinate], the retentivity in blood result in data set [1] was “stayed longer in the blood than 4 MU-Pal”.

As to `CCCCCCCC/C=C\CCCCCCCC(=O)OCC(CN(C)C)OC(=O)CCCCCCC/C=C\CCCCCCCC` (stereo not drawn) [DODAP], the transfer into tumor entry in data set [2] is “transfer well into tumor”. Besides, the “release of drug model substance” value in data set [3] (conventional lipid particle suspension, 24 hr, under any conditions (reduction or nonreduction)) was “hardly released”. In addition, in data set [3] (conventional lipid:DOPC:Cholesterol=3:4:3 particle suspension, 4-Methylumbelliferon Palmitate 30 mol %), the responsiveness under reduction result is listed as “not found”. Further, the PdI in data set [4] (DexPal-carrying particles) came out at 0.15 ± 0.01; in data set [4] (particle suspension of conventional lipid (DODAP:DOPE:Cholesterol=3:4:3 or EPC:Cholesterol=3:2)), 0.418. Moreover, the volume median diameter in data set [4] (DexPal-carrying particles (lipid, DOPC, Chol, DMG-PEG2000, DSG-PEG2000, DexPal)) amounted to 39.1 ± 2.2 nm·days; in data set [4] (particle suspension of conventional lipid (DODAP:DOPE:Cholesterol=3:4:3 or EPC:Cholesterol=3:2), 4-Methylumbelliferon 10 mol %) it was 34.8 nm. Further, the carrying rate in data set [5] was found to be 89.6 ± 2.9%.
